# Reference: patent publication US20130152233A1, “5-FLUOROCYTOSINE AS A SEED TREATMENT AGENT TO CONTROL PLANT DISEASE” (Dow AgroSciences LLC, priority 2011, published 2013)
# Tested on: Mycosphaerella graminicola; anamorph: Septoria tritici; Bayer code SEPTTR
# Experiment: Fungicidal activity as a seed treatment for leaf blotch of wheat (SEPTTR), treated 'Yuma' wheat seeds
# Assay type: in vivo
# Method: Evaluation of Fungicidal Activity as a Seed Treatment for Leaf Blotch of Wheat (Mycosphaerella graminicola; anamorph: Septoria tritici; Bayer code […]) Seeds of wheat variety 'Yuma' were treated with a 1% weight-to-volume (w/v) solution of 5-fluorocytosine in water at rates of 16.5, 5.5, 1.8, and 0 grams of active ingredient per 100 kilograms (g ai/100 kg) of seeds. A red dye and a polymer blend were included in the formulation as inert ingredients. Seeds were allowed to dry thoroughly and were sown 3 days (trial 1) or 5 weeks (trials 2 and 3) after treatment. Seeds (10-12 seeds/pot) were planted in 4 square inch pots containing 50% mineral soil/50% soil-less Metro mix. Eleven-day-old seedlings were inoculated with an aqueous spore suspension of Septoria tritici, and 6-10 pots of plants were inoculated for each fungicide rate. After inoculation, plants were kept in 100% relative humidity three days to allow establishment of infection. The plants were then transferred to a greenhouse until disease developed. When disease on untreated plants was fully expressed , disease severities on treated plants were assessed. […] Trial 1 was the average of 10 pots of plants; Trial 2 was the average of 6 pots of plants; and Trial 3 was the average of 6 pots of plants placed in weigh boats in order to prevent possible loss of the 5-fluorocytosine from soil leaching. The following tables include data showing the activity of 5-fluorocytosine when evaluated in these experiments. The effectiveness of 5-fluorocytosine in controlling disease was determined by assessing the severity of disease on treated plants, then converting the severity to percent control based on the level of disease on untreated, inoculated plants.
structure (smiles),measurement,setting,value
Nc1nc(=O)[nH]cc1F [5-fluorocytosine],% Disease control (SEPTTR),"Trial 1, 1.8 g ai/100 kg seeds, sown 3 days after treatment, average of 10 pots",D (1-25)
same,% Disease control (SEPTTR),"Trial 1, 5.5 g ai/100 kg seeds, sown 3 days after treatment, average of 10 pots",C (26-50)
same,% Disease control (SEPTTR),"Trial 1, 16.5 g ai/100 kg seeds, sown 3 days after treatment, average of 10 pots",A (76-100)
same,% Disease control (SEPTTR),"Trial 2, 1.8 g ai/100 kg seeds, sown 5 weeks after treatment, average of 6 pots",C (26-50)
same,% Disease control (SEPTTR),"Trial 2, 5.5 g ai/100 kg seeds, sown 5 weeks after treatment, average of 6 pots",A (76-100)
same,% Disease control (SEPTTR),"Trial 2, 16.5 g ai/100 kg seeds, sown 5 weeks after treatment, average of 6 pots",A (76-100)
same,% Disease control (SEPTTR),"Trial 3, 1.8 g ai/100 kg seeds, sown 5 weeks after treatment, 6 pots in weigh boats",C (26-50)
same,% Disease control (SEPTTR),"Trial 3, 5.5 g ai/100 kg seeds, sown 5 weeks after treatment, 6 pots in weigh boats",A (76-100)
same,% Disease control (SEPTTR),"Trial 3, 16.5 g ai/100 kg seeds, sown 5 weeks after treatment, 6 pots in weigh boats",A (76-100)
same,control of SEPTTR (in words),test rate of 16.5 g ai/100 kg seeds,significant level of control
